Entries after “also recorded” stand apart in the source; their conditions may differ. Marks after values point to notes of the source that are not given here.
Legend:
Y169F MtIPMS = Y169F MtIPMS (Mycobacterium tuberculosis, UniProt P9WQB3, Y169F); format: biochemical
E218A IPMS [1] = target: T1, E218A IPMS (Mycobacterium tuberculosis, UniProt P9WQB3, E218A); format: biochemical
H379A IPMS [2] = target: T2, H379A IPMS (Mycobacterium tuberculosis, UniProt P9WQB3, H379A); format: biochemical
E218A IPMS [3] = target: T1, E218A IPMS; format: binding
Y410F IPMS [4] = target: T3, Y410F IPMS (Mycobacterium tuberculosis, UniProt P9WQB3, Y410F); format: binding
Y410F IPMS [5] = target: T3, Y410F IPMS; format: biochemical
E218A IPMS [6] = target: T1, E218A IPMS; format: biochemical; remark: listed apart in the source
Y169F IPMS = Y169F IPMS (Mycobacterium tuberculosis, UniProt P9WQB3, Y169F); format: biochemical; conditions: for Km: read-out: K1 (Km)
Y410F IPMS [7] = target: T3, Y410F IPMS; format: biochemical; conditions: for Km: read-out: K1 (Km)
H379A IPMS [8] = target: T2, H379A IPMS; format: biochemical; remark: listed apart in the source

For `CC(C)C[C@H](N)C(=O)O` [L-leucine], the “inhibition at saturating L-leucine” value (Y169F MtIPMS) was “fully inhibited; also recorded: completely inhibited”, the “activity retained, vss data” value (E218A IPMS [1]) was 16% and the “β, limiting value for vi” value (E218A IPMS [1]) was 0.61/0.16 ^c. For the same molecule, the “activity retained at saturating L-leucine” value (H379A IPMS [2]) was 24%, the “β (fractional activity at saturating inhibitor)” value (H379A IPMS [2]) was 0.24 and the “N (stoichiometry for binding)” value (E218A IPMS [3]) was 0.97 ± 0.01. For the same molecule, the ΔH (E218A IPMS [3]) was 1.486 ± 0.031 kcal/mol, the ΔS (E218A IPMS [3]) was 28.5 cal/mol/K and the “N (stoichiometry for binding)” value (Y410F IPMS [4]) was 0.91 ± 0.01. The ΔH (Y410F IPMS [4]) was 2.598 ± 0.048 kcal/mol, the ΔS (Y410F IPMS [4]) was 30.1 cal/mol/K and the “sensitivity to L-leucine inhibition” value (Y410F IPMS [5]) was “insensitive”.

Molecule `CC(=O)SCCNC(=O)CCNC(=O)[C@H](O)C(C)(C)COP(=O)(O)OP(=O)(O)OC[C@H]1O[C@@H](n2cnc3c(N)ncnc32)[C@H](O)[C@@H]1OP(=O)(O)O` [Acetyl-CoA, acetyl-coenzyme A] has a K1 (E218A IPMS [6]) of 9.5 ± 1.1 µM, a K2 (E218A IPMS [6]) of 697 ± 615 µM and a kcat1 (E218A IPMS [6]) of 0.0583 ± 0.0033 s⁻¹. The kcat2 (E218A IPMS [6]) was 0.0933 ± 0.0467 s⁻¹, the “kcat1 (kcat)” value (Y169F IPMS) was 5.67 ± 0.217 s⁻¹ and the Km (Y169F IPMS) was 40 ± 6 µM. The “kcat1 (kcat)” value (Y410F IPMS [7]) was 0.0933 ± 0.0033 s⁻¹, the Km (Y410F IPMS [7]) was 1.1 ± 0.2 µM and the “kcat1 (kcat)” value (H379A IPMS [8]) was 2.55 ± 0.033 s⁻¹. It also gave a Km (H379A IPMS [8]; read-out: K1 (Km)) of 23 ± 1.5 µM.

`CC(C)C(=O)C(=O)O` [α-KIV, α-ketoisovalerate] gave a K1 (E218A IPMS [6]) of 1.6 ± 0.2 µM, a K2 (E218A IPMS [6]) of 39 ± 11 µM and a kcat1 (E218A IPMS [6]) of 0.0367 ± 0.0017 s⁻¹. For the same molecule, the kcat2 (E218A IPMS [6]) was 0.0217 ± 0.0017 s⁻¹, the “kcat1 (kcat)” value (Y169F IPMS) was 4.75 ± 0.267 s⁻¹ and the Km (Y169F IPMS) was 13.4 ± 2.6 µM. For the same molecule, the “kcat1 (kcat)” value (Y410F IPMS [7]) was 0.075 ± 0.0033 s⁻¹, the Km (Y410F IPMS [7]) was 0.5 ± 0.1 µM and the K1 (H379A IPMS [8]) was 1.6 ± 1.1 µM. The K2 (H379A IPMS [8]) was 19 ± 6 µM, the kcat1 (H379A IPMS [8]) was 0.7 ± 0.3 s⁻¹ and the kcat2 (H379A IPMS [8]) was 1.48 ± 0.283 s⁻¹.

From article PMC2724842 (Biochemistry, 2009)
